Data published in US20220177508A1, “C10-Cyclic Substituted 13-Membered Macrolides and Uses Thereof” (Zikani Therapeutics, Inc., priority 2018, published 2022).
Values after ≈ are worked out from the molar mass of the structure shown.

Columns and labels:
Type in all cases: cell-based
S. aureus MP-12 = assay: Broth dilution MIC determination (CLSI), S. aureus MP-12; settings: Staphylococcus aureus, MP12; strain MP-12, broth dilution
P. aeruginosa MP-3 = assay: Broth dilution MIC determination (CLSI), P. aeruginosa MP-3; settings: Pseudomonas aeruginosa, MP3; strain MP-3, broth dilution
E. coli MP-4 = assay: Broth dilution MIC determination (CLSI), E. coli MP-4; settings: Escherichia coli, MP4; strain MP-4, broth dilution; read-out: MIC E. coli MP-4
K. pneumoniae MP-648 = assay: Broth dilution MIC determination (CLSI), K. pneumoniae MP-648; settings: Klebsiella pneumoniae, MP648; strain MP-648, broth dilution
A. baumannii MP-15 = assay: Broth dilution MIC determination (CLSI), A. baumannii MP-15; settings: Acinetobacter baumannii, MP15; strain MP-15, broth dilution; read-out: MIC A. baumanii MP-15
K. pneumoniae MP-546 = assay: Broth dilution MIC determination (CLSI), K. pneumoniae MP-546; settings: Klebsiella pneumoniae, MP546; strain MP-546, broth dilution

In the case of `CO[C@]1(C)C[C@@H](C)CN(C)[C@H](C2CN(C(=O)CCN(C)CC3CC3)C2)COC(=O)C(C)(C)C(=O)[C@H](C)[C@H]1O[C@@H]1O[C@H](C)C[C@H](N(C)C)[C@H]1O` [Compound 144, (3R,6R,8R,9R,10R)-3-(1-(3-((cyclopropylmethyl)(methyl)amino)propanoyl)azetidin-3-yl)-9-(((2S,3R,4S,6R)-4-(dimethylamino)-3-hydroxy-6-methyltetrahydro-2H-pyran-2-yl)oxy)-8-methoxy-4,6,8,10,12,12-hexamethyl-1-oxa-4-azacyclotridecane-11,13-dione], the MIC (S. aureus MP-12) is reported as greater than 32 µg/mL, the MIC (P. aeruginosa MP-3) is reported as greater than 32 µg/mL and the MIC (E. coli MP-4) is reported as less than 4 µg/mL. For the same molecule, the MIC (K. pneumoniae MP-648) was greater than 32 µg/mL, the MIC (A. baumannii MP-15) was greater than 32 µg/mL and the MIC (K. pneumoniae MP-546) was 4 to 32 µg/mL (≈ 5.76 to 46 µM).

With `CO[C@]1(C)C[C@@H](C)CN(C)[C@H](C2CN(C(=O)[C@@H]3CCN(CC4CC4)C3)C2)COC(=O)C(C)(C)C(=O)[C@H](C)[C@H]1O[C@@H]1O[C@H](C)C[C@H](N(C)C)[C@H]1O` [Compound 145, (3R,6R,8R,9R,10R)-3-(1-((R)-1-(cyclopropylmethyl)pyrrolidine-3-carbonyl)azetidin-3-yl)-9-(((2S,3R,4S,6R)-4-(dimethylamino)-3-hydroxy-6-methyltetrahydro-2H-pyran-2-yl)oxy)-8-methoxy-4,6,8,10,12,12-hexamethyl-1-oxa-4-azacyclotridecane-11,13-dione] the MIC (S. aureus MP-12) was greater than 32 µg/mL, the MIC (P. aeruginosa MP-3) was greater than 32 µg/mL and the MIC (E. coli MP-4) was less than 4 µg/mL. The MIC (K. pneumoniae MP-648) was 4 to 32 µg/mL (≈ 5.66 to 45.3 µM), the MIC (A. baumannii MP-15) was greater than 32 µg/mL and the MIC (K. pneumoniae MP-546) was 4 to 32 µg/mL (≈ 5.66 to 45.3 µM).

In the case of `CO[C@]1(C)C[C@@H](C)CN(C)[C@H](C2CN(CC3CC3)C2)[C@@H](C)OC(=O)C(C)(C)C(=O)[C@H](C)[C@H]1O[C@@H]1O[C@H](C)C[C@H](N(C)C)[C@H]1O` [Compound 146, (2R,3R,6R,8R,9R,10R)-3-(1-(cyclopropylmethyl)azetidin-3-yl)-9-(((2S,3R,4S,6R)-4-(dimethylamino)-3-hydroxy-6-methyltetrahydro-2H-pyran-2-yl)oxy)-8-methoxy-2,4,6,8,10,12,12-heptamethyl-1-oxa-4-azacyclotridecane-11,13-dione], the MIC (S. aureus MP-12) is reported as greater than 32 µg/mL, the MIC (P. aeruginosa MP-3) is reported as greater than 32 µg/mL and the MIC (E. coli MP-4) is reported as 4 to 32 µg/mL (≈ 6.41 to 51.3 µM). It also gave an MIC (K. pneumoniae MP-648) greater than 32 µg/mL, an MIC (A. baumannii MP-15) greater than 32 µg/mL and an MIC (K. pneumoniae MP-546) greater than 32 µg/mL.

For `CO[C@]1(C)C[C@@H](C)CN(C)[C@H](C2CCN(C(C)C)CC2)COC(=O)C(C)(C)C(=O)[C@H](C)[C@H]1O[C@@H]1O[C@H](C)C[C@H](N(C)C)[C@H]1O` [Compound 151], the MIC (S. aureus MP-12) was greater than 32 µg/mL, the MIC (P. aeruginosa MP-3) was greater than 32 µg/mL and the MIC (E. coli MP-4) was less than 4 µg/mL. The MIC (K. pneumoniae MP-648) was less than 4 µg/mL, the MIC (A. baumannii MP-15) was greater than 32 µg/mL and the MIC (K. pneumoniae MP-546) was less than 4 µg/mL.

In the case of `CO[C@]1(C)C[C@@H](C)CN(C)[C@H](C2CN(C(=O)CCCN(C)CC3CCC3)C2)COC(=O)C(C)(C)C(=O)[C@H](C)[C@H]1O[C@@H]1O[C@H](C)C[C@H](N(C)C)[C@H]1O` [Compound 156, (3R,6R,8R,9R,10R)-3-(1-(4-((cyclobutylmethyl)(methyl)amino)butanoyl)azetidin-3-yl)-9-(((2S,3R,4S,6R)-4-(dimethylamino)-3-hydroxy-6-methyltetrahydro-2H-pyran-2-yl)oxy)-8-methoxy-4,6,8,10,12,12-hexamethyl-1-oxa-4-azacyclotridecane-11,13-dione], the MIC (S. aureus MP-12) is reported as greater than 32 µg/mL, the MIC (P. aeruginosa MP-3) is reported as greater than 32 µg/mL and the MIC (E. coli MP-4) is reported as less than 4 µg/mL. The MIC (K. pneumoniae MP-648) was 4 to 32 µg/mL (≈ 5.53 to 44.3 µM), the MIC (A. baumannii MP-15) was greater than 32 µg/mL and the MIC (K. pneumoniae MP-546) was 4 to 32 µg/mL (≈ 5.53 to 44.3 µM).

For `CO[C@]1(C)C[C@@H](C)CN(C)[C@](C)(C2CCN(C(C)C)CC2)COC(=O)C(C)(C)C(=O)[C@H](C)[C@H]1O[C@@H]1O[C@H](C)C[C@H](N(C)C)[C@H]1O` [Compound 158, (3R,6R,8R,9R,10R)-9-(((2S,3R,4S,6R)-4-(dimethylamino)-3-hydroxy-6-methyltetrahydro-2H-pyran-2-yl)oxy)-3-(1-isopropylpiperidin-4-yl)-8-methoxy-3,4,6,8,10,12,12-heptamethyl-1-oxa-4-azacyclotridecane-11,13-dione], the MIC (S. aureus MP-12) was 4 to 32 µg/mL (≈ 6.25 to 50 µM), the MIC (P. aeruginosa MP-3) was greater than 32 µg/mL and the MIC (E. coli MP-4) was less than 4 µg/mL. The MIC (K. pneumoniae MP-648) was less than 4 µg/mL, the MIC (A. baumannii MP-15) was greater than 32 µg/mL and the MIC (K. pneumoniae MP-546) was less than 4 µg/mL.
